From US20080076729A1, “Interferon-beta gene therapy using an improved, regulated expression system” (Schering Aktiengesellachaft, priority 2005, published 2008)

Columns and labels:
Mx1 RNA = Mx1 RNA induction in PBMCs of treated mice (quantitative RT-PCR, normalized to GAPDH); format: in vivo
Experimental: FIG. 6 illustrates Mx1 RNA induction following i.v. (A) or i.m. injection (B) of mIFN-β protein. C57BL/6 mice were administered 15, 150, or 500 ng of purified recombinant mIFN-β protein (specific activity-2.0×10^8 units/mg) by either i.v. (via tail vein) or i.m. injection (n=3 mice per group). At the specified time points post-injection mice were bled, and RNA was isolated from PBMCs. Mx1 RNA was measured by quantitative RT-PCR. The fold increase in Mx1 RNA is expressed relative to GAPDH values measured in the same samples. The controls include naive mice (N), and mice injected with the vehicle buffer only followed by Mx1 analysis at 2 hours (V2 h) or 4 h (V4 h) post-injection. Each column represents the mean value +/− standard deviation.

JE = JE chemokine level in plasma of treated mice by ELISA; format: in vivo; conditions: bolus protein, each of three doses
Experimental: FIG. 7 illustrates induction levels of IP-10 (A) and JE (B) following i.v. or i.m. injection of murine IFN-β protein. C57BL/6 mice were administered 15, 150, or 500 ng of purified recombinant mIFN-β protein (specific activity=2.0×10^8 units/mg) by either i.v. (via tail vein) or i.m. injection (n=3 mice per group). The mice were bled at 2, 4, 6, 12, 24, and 48 hours post-injection, and the plasma levels of IP-10 and JE were measured by ELISA (R&D Systems).
FIG. 19 illustrates IP-10 and JE induction with a pBRES mIFN-β regulated expression system of the present invention.
• A. Development of mIFN-β Biomarkers: For higher sensitivity in detection of murine IFN-β (mIFN-β) activity in vivo, biomarkers for mIFN-β activity were identified in mice after injection of mIFN-β protein or mIFN-β encoded gene therapy vectors. […] In the present study, the expression of the MxA mouse homologue, Mx1, (see e.g., Hug, H et al. Mol Cell Biol 8: 3065-79; Pavlovic, J (1993) Ciba Found Symp 176: 233-43) isolated from murine peripheral blood monocytes (PBMC's) was used to detect the presence of biologically active mIFN-β. • A quantitative PCR/RT-PCR assay was developed to quantitate the levels of Mx1 mRNA in murine PBMC's. […] The samples were analyzed with an Mx1-specific probe/primer combination. […] The highest Mx1 expression levels were measured 2 hours after injection. […]

Question: With “mIFN-β: purified recombinant murine interferon-beta protein” as the substance, how does the “time after injection beyond which no Mx1 RNA levels above background were detected” value (Mx1 RNA; bolus protein) read?
Answer: 12 h

Question: What about the “Induction of Mx1 RNA expression relative to vehicle injected mice” value (Mx1 RNA; bolus protein 15, 150 or 500 ng, i.v. or i.m.) of the same substance?
Answer: 25- to 50 fold

Question: What about the “Tmax of induction of all three biomarkers (Mx1, IP-10, JE)” value (Mx1 RNA; bolus protein i.v. or i.m.) of the same substance?
Answer: approximately 2 hours

Question: What about the “time after injection of highest Mx1 expression levels” value (Mx1 RNA; bolus protein i.v. or i.m.) of the same substance?
Answer: 2 h

Question: What about the “time post-injection within which biomarker levels dropped to background” value (Mx1 RNA; bolus protein i.v. or i.m.) of the same substance?
Answer: 12 to 24 h

Question: And the “dose giving highest Mx1 induction” value (Mx1 RNA; i.v. injection, diminished at 500 ng)?
Answer: 150 ng

Question: And the “time by which plasma JE dropped to background” value (JE)?
Answer: ≤ 24 h
